# Measurements: patent publication US6677316B2, “Adenosine derivatives and methods of administration” (SmithKline Beecham Corporation, priority 1998, dated 2004)
# Assays:
# [1] = target: T1, human adenosine A1 receptor (Homo sapiens, UniProt P30542); experiment: Reporter gene assay (CRE/SPAP) in CHO cells, agonist potency relative to NECA, adenosine A1 receptor; type: cell-based; parameters: key: equipotent concentration ratio, NECA = 1; details: ECR = equipotent concentration ratio relative to NECA = 1, inhibition of forskolin-stimulated SPAP production
# T1 construct: expressed in transfected cells; host or cells: Chinese hamster ovary (CHO) cells with CRE/SPAP/HYG reporter elements
# T1 sequence (P30542 1-326): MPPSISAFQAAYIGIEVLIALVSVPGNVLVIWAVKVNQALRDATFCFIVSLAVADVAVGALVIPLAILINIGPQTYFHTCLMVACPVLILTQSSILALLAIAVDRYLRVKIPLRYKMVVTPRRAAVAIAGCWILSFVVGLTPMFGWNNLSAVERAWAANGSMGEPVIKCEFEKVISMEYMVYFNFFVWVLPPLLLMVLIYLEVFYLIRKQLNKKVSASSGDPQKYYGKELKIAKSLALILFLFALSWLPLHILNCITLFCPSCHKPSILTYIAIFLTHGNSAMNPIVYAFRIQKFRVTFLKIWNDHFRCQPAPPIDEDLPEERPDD
# Experimental: (§1) Reporter Gene Experiments
# (§2) Agonist activity was measured in Chinese hamster ovary (CHO) cells containing the CRE/SPAP/HYG (CRE=cyclic AMP response element; HYG=hygromycin resistance; SPAP=secreted placental alkaline phosphatase) reporter gene elements, which upon stimulation of cAMP levels produced SPAP. A cell line was used, which was stably transfected with either the human adenosine A1 receptor or the human adenosine A3 receptor in addition to the above elements. Cells were plated out in 96-well plates in culture medium and incubated at 37° C. for 1 hour. For measurement of potency, agonists were added to the appropriate wells at a concentration range of approximately 10^−10- 10^−5M. 15Min later, cAMP levels were stimulated by addition of a maximal concentration of forskolin. All cells were then incubated for a further 5 hours at 37° C., and cooled to room temperature, after which a substrate for the phosphatase (para-nitrophenol phosphate, pNPP), which is converted by SPAP to a coloured reagent) was then added and the 96-well -plates were read in a plate reader. From these readings, the concentration-dependence of the inhibition by the agonist for forskolin-stimulated SPAP production can be calculated. One of the agonists tested on each 96-well plate was the standard non-selective agonist, N-ethylcarboxamidoadenosine (NECA), and the potency of all test agonists is expressed relative to that of the NECA standard.
# (§3) (ECR=equipotent concentration ratio relative to NECA=1)
# [2] = target: T2, human adenosine A3 receptor (Homo sapiens, UniProt P0DMS8); experiment: Reporter gene assay (CRE/SPAP) in CHO cells, agonist potency relative to NECA, adenosine A3 receptor; type: cell-based; parameters: key: equipotent concentration ratio, NECA = 1; details: ECR = equipotent concentration ratio relative to NECA = 1, inhibition of forskolin-stimulated SPAP production
# T2 construct: expressed in transfected cells; host or cells: Chinese hamster ovary (CHO) cells with CRE/SPAP/HYG reporter elements
# T2 sequence (P0DMS8 1-318): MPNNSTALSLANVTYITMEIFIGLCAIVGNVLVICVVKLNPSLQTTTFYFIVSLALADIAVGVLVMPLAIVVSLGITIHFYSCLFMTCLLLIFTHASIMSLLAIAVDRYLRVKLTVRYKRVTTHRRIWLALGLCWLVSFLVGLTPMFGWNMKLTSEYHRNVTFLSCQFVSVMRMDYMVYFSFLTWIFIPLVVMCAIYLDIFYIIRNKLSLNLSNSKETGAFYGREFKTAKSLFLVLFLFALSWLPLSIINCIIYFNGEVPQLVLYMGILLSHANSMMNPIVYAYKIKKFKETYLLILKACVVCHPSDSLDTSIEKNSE
# Experimental: as §1, §2, §3
SMILES,Adenosine A1 receptor ECR* [1],Adenosine A3 receptor ECR* [2]
"CCOC(=O)N1CCC(Nc2ncnc3c2ncn3[C@@H]2O[C@H](c3cc(CC)no3)[C@@H](O)[C@H]2O)CC1 [Example 138, ethyl 4-({9-[(2R,3R,4S,5S)-5-(3-ethylisoxazol-5-yl)-3,4-dihydroxytetrahydrofuran-2-yl]-9H-purin-6-yl}amino)piperidine-1-carboxylate]",1.31,
"CC(C)CNc1ncnc2c1ncn2[C@@H]1O[C@H](c2nc(C(C)(C)C)no2)[C@@H](O)[C@H]1O [Example 45, (2S,3S,4R,5R)-2-[3-(tert-butyl)-1,2,4-oxadiazol-5-yl]-5-[6-(isobutylamino)-9H-purin-9-yl]tetrahydrofuran-3,4-diol]",7.36,165.54
"O[C@@H]1[C@H](O)[C@@H](c2cc(C3CC3)no2)O[C@H]1n1cnc2c(Nc3ccc(Cl)cc3F)ncnc21 [Example 182, (2R,3R,4S,5S)-2-[6-(4-chloro-2-fluoroanilino)-9H-purin-9-yl]-5-(3-cyclopropyl-isoxazol-5-yl)-tetrahydrofuran-3,4-diol]",3.48,
"CCc1cc([C@H]2O[C@@H](n3cnc4c(N[C@H]5CCC[C@@H]5O)ncnc43)[C@H](O)[C@@H]2O)on1 [Example 136, (2S,3S,4R,5R)-2-(3-ethylisoxazol-5-yl)-5-(6-{[(1S,2S)-2-hydroxycyclopentyl]amino}-9H-purin-9-yl)tetrahydrofuran-3,4-diol]",1.95,
"CCOC(=O)N1CCC(Nc2ncnc3c2ncn3[C@@H]2O[C@H](c3nc(C)no3)[C@@H](O)[C@H]2O)CC1 [Example 37, ethyl 4-({9-[(2R,3R,4S,5S)-3,4-dihydroxy-5-(3-methyl-1,2,4-oxadiazol-5-yl)tetrahydrofuran-2-yl]-9H-purin-6-yl}amino)piperidine-1-carboxylate]",4.19,507
"Cc1cccc(NS(=O)(=O)CCNc2ncnc3c2ncn3[C@@H]2O[C@H](c3nnc(C(C)(C)C)o3)[C@@H](O)[C@H]2O)c1 [Example 126, 2-[(9-{(2R,3R,4S,5S)-5-[5-(tert-butyl)-1,3,4-oxadiazol-2-yl]-3,4-dihydroxytetrahydrofuran-2-yl}-9H-purin-6-yl)amino]-N-(3-methylphenyl)ethanesulfonamide]",13.9,
"CC(C)(C)c1nnc([C@H]2O[C@@H](n3cnc4c(NC5CCOCC5)ncnc43)[C@H](O)[C@@H]2O)o1 [Example 3, (2S,3S,4R,5R)-2-(5-tert-Butyl-[1,3,4]oxadiazol-2-yl)-5-[6-(tetrahydro-pyran-4-ylamino)-purin-9-yl]-tetrahydro-furan-3,4-diol]",4.16,152
"CCOC(=O)N1CCC(Nc2ncnc3c2ncn3[C@@H]2O[C@H](c3nnc(C(C)(C)C)o3)[C@@H](O)[C@H]2O)CC1 [Example 4, 4-{9-[5S-(5-tert-Butyl-[1,3,4]oxadiazol-2-yl)-3R,4S-dihydroxy-tetrahydro-furan-2R-yl]-9H-purin-6-ylamino}-piperidine-1-carboxylic acid ethyl ester]",5.65,152
"CC(C)(C)c1nnc([C@H]2O[C@@H](n3cnc4c(Nc5ccc(F)cc5Cl)ncnc43)[C@H](O)[C@@H]2O)o1 [Example 116, (2S,3S,4R,5R)-2-[5-(tert-butyl)-1,3,4-oxadiazol-2-yl]-5-[6-(2-chloro-4-fluoroanilino)-9H-purin-9-yl]tetrahydrofuran-3,4-diol]",27.26,955
"CC(C)c1nnc([C@H]2O[C@@H](n3cnc4c(Nc5ccc(F)cc5Cl)ncnc43)[C@H](O)[C@@H]2O)[nH]1 [Example 68, (2R,3R,4S,5R)-2-[6-(2-chloro-4-fluoroanilino)-9H-purin-9-yl]-5-(5-isopropyl-4H-1,2,4-triazol-3-yl)tetrahydrofuran-3,4-diol]",4.09,417.37
"CCC(CC)Nc1nc(Cl)nc2c1ncn2[C@@H]1O[C@H](c2nc(C3CC3)no2)[C@@H](O)[C@H]1O.O=CO.O=CO [Example 133, (2R,3R,4S,5S)-2-{2-chloro-6-[(1-ethylpropyl)amino]-9H-purin-9-yl}-5-(3-cyclopropyl-1,2,4-oxadiazol-5-yl)tetrahydrofuran-3,4-diol formate (1:2)]",25.47,466.92
Cc1nnc([C@H]2O[C@@H](n3cnc4c(Nc5ccc(Cl)cc5F)ncnc43)[C@H](O)[C@@H]2O)o1 [Example 181],8.57,
"Cc1cc([C@H]2O[C@@H](n3cnc4c(Nc5ccc(Cl)cc5F)ncnc43)[C@H](O)[C@@H]2O)on1 [Example 144, (2R,3R,4S,5S)-2-[6-(4-chloro-2-fluoroanilino)-9H-purin-9-yl]-5-(3-methylisoxazol-5-yl)tetrahydrofuran-3,4-diol]",2.8,
"CC(C)(C)c1cc([C@H]2O[C@@H](n3cnc4c(NC5CCOCC5)ncnc43)[C@H](O)[C@@H]2O)on1 [Example 28, (2S,3S,4R,5R)-2-(3-tert-Butyl-isoxazol-5-yl)-5-[6-(tetrahydro-pyran-4-ylamino)-purin-9-yl]-tetrahydro-furan-3,4-diol]",0.42,44.7
"CNS(=O)(=O)CCNc1ncnc2c1ncn2[C@@H]1O[C@H](c2nc(C(C)C)no2)[C@@H](O)[C@H]1O [Example 54, 2-({9-[(2R,3R,4S,5S)-3,4-dihydroxy-5-(3-isopropyl-1,2,4-oxadiazol-5-yl)tetrahydrofuran-2-yl]-9H-purin-6-yl}amino)-N-methylethanesulfonamide]",20.78,715.31
"CC(C)c1nnc([C@H]2O[C@@H](n3cnc4c(NC5CCOCC5)ncnc43)[C@H](O)[C@@H]2O)o1 [Example 6, (2S,3S,4R,5R)-2-(5-Isopropyl-[1,3,4]oxadiazol-2-yl)-5-[6-(tetrahydro-pyran-4-ylamino)-purin-9-yl]-tetrahydro-furan-3,4-diol]",1.71,134
"CCc1cc([C@H]2O[C@@H](n3cnc4c(NC5CCOCC5)ncnc43)[C@H](O)[C@@H]2O)on1 [Example 135, (2S,3S,4R,5R)-2-(3-ethylisoxazol-5-yl)-5-[6-(tetrahydro-2H-pyran-4-ylamino)-9H-purin-9-yl]tetrahydrofuran-3,4-diol]",0.48,
"CCCc1cc([C@H]2O[C@@H](n3cnc4c(Nc5ccc(Cl)cc5F)ncnc43)[C@H](O)[C@@H]2O)on1 [Example 145, (2R,3R,4S,5S)-2-[6-(4-chloro-2-fluoroanilino)-9H-purin-9-yl]-5-(3-propylisoxazol-5-yl)tetrahydrofuran-3,4-diol]",24.9,
"O[C@@H]1[C@H](O)[C@@H](c2nnc(C(F)(F)F)o2)O[C@H]1n1cnc2c(N[C@H]3CCC[C@@H]3O)ncnc21 [Example 179, (2R,3R,4S,5S)-2-(6-{[(1S,2S)-2-hydroxy-cyclopentyl]-amino}-9H-purin-9-yl)-5-[5-(trifluoromethyl)-1,3,4-oxadiazol-2-yl]-tetrahydrofuran-3,4-diol]",12.6,
"O[C@@H]1[C@H](O)[C@@H](c2cc(Br)no2)O[C@H]1n1cnc2c(Nc3ccc(Cl)cc3F)ncnc21 [Example 164, (2S,3S,4R,5R)-2-(3-bromoisoxazol-5-yl)-5-[6-(4-chloro-2-fluoroanilino)-9H-purin-9-yl]tetrahydrofuran-3,4-diol]",4.3,
